Values after ≈ are worked out from the molar mass of the structure shown. Like-named read-outs stand apart in the source and are kept apart here.
Experiments:
[1] = reference [17]; cited from earlier work
[2] = low solubility and permeability; cited from earlier work
[3] = In vitro release in FeSSIF with 1% v/v Tween 20 (Polysorbate 20), Example 2, FIG. 4; type: physicochemical; details: FeSSIF + 1% v/v Tween 20, 37° C.
Protocol: (§1) Release Kinetics in Vitro: Simulated gastric fluid (FaSSGF) and intestinal fluids (FaSSIF and FeSSIF) are prepared according to the manufacturer's instructions. Dissolution tests are performed with spray dried DHM-containing powders or tablets with the appropriate controls. Release under Gastric Conditions: DHM-containing spray dried powder samples are suspended in prewarmed FaSSGF (37° C.) to achieve a drug (DHM) concentration of roughly 10-100× the previously determined equilibrium solubility in the FaSSGF fluid (e.g., 75 μg/mL) by pipetting up and down vigorously multiple times. The samples are incubated for the duration of the study (e.g., 30 min) at 37° C. […] The samples are then diluted as appropriate to fall within the detection range and analyzed by high-performance liquid chromatography (HPLC), with the mobile phase as 80:20 H2O: acetonitrile (each with 0.05% trifluoroacetic acid), and with detection with UV-Vis at 290 nm. The concentration of DHM is then calculated based on a calibration curve. […] The samples are then diluted as appropriate to fall within the detection range and analyzed by HPLC, with the mobile phase as 80:20 H2O: acetonitrile (each with 0.05% trifluoroacetic acid), and with detection with UV-Vis at 290 nm. The concentration of DHM is then calculated based on a calibration curve. […]

[4] = In vitro release in fed state simulated intestinal fluid (FeSSIF), Example 1, FIG. 3; type: physicochemical; details: 37° C., loaded at 1400 μg/mL DHM, 360 minute timepoint
Protocol: as §1

[5] = Equilibrium solubility of crystalline DHM in simulated intestinal fluids (FeSSIF, FaSSIF); type: physicochemical; details: thermodynamic from solid

In the case of `O=C1c2c(O)cc(O)cc2O[C@H](c2cc(O)c(O)c(O)c2)[C@H]1O` [DHM, dihydromyricetin], the oral bioavailability [1] is listed as “less than 5%”, the BCS class [2] is listed as “BCS class IV” and the “effect of Tween 20 (Polysorbate 20) surfactant on solubility of DHM” value [3] is listed as “increased”. For the same compound, the “dissolved DHM concentration at completion of the release study” value [4] was “approximately reached its previously determined equilibrium concentration”, the solubility thermodynamic ([5]; Fasted State Simulated Intestinal Fluid (FaSSIF), pH 6.5, fassif, fasted state simulated intestinal fluid, pH 6.5, read-out: equilibrium solubility in FaSSIF) was about 50 µg/mL (≈ 156 µM) and the solubility thermodynamic ([5]; Fed State Simulated Intestinal Fluid (FeSSIF), pH 5, fessif, fed state simulated intestinal fluid, pH 5.0, read-out: equilibrium solubility in FeSSIF) was about 140 µg/mL (≈ 437 µM).

From patent US20240408050A1, “DIHYDROMYRICETIN SPRAY-DRIED DISPERSION FORMULATIONS AND METHODS FOR FORMING THEM” (The Trustees of Princeton University, priority 2018, published 2024)
